Measured values taken from US10072051B2, “Anti-inflammatory lipopeptide and preparing method and application thereof” (EAST CHINA NORMAL UNIVERSITY, priority 2012, dated 2018).
Entries after “also recorded” stand apart in the source; their conditions may differ.

Columns and labels:
Assay type in all cases: cell-based
NHEKs = assay: poly(I:C)-induced TNF-α and IL-6 expression in NHEKs, real-time RT-PCR
Experimental: NHEKs were seeded in 24-well plates to grow to 70˜80% confluence, 2 ug/ml poly(I:C) were added. Different concentrations of the lipopeptide as Formula (1) in Example 1 were used to treat NHEKs. After 24 h, total RNA was extracted and cDNA was generated to detect the TNF-α and IL-6 expression by using real-time RT-PCR. […]

β-catenin = β-catenin translocation into the nucleus in NHEKs; details: LiCl, nucleocytoplasmic separation
p65 [1] = assay: p65 translocation into the nucleus in NHEKs (immunofluorescence, Western blot of nuclear proteins); details: poly(I:C) alone; for p65 translocation into the nucleus: immunofluorescence
Experimental: NHEKs were treated with PBS or poly(I:C) for 4 hours, and fixed with formaldehyde for 15 min followed by adding ice-cold 0.25% TritonX-100 and hydrogen peroxide. Cells were incubated with anti-p65 antibody at 4° C. for overnight after blocked with BSA for 0.5 hour. Next day, the cells were incubated with the second antibody (FITC-goat anti Rabbit IgG) and visualized under the microscope.
NHEKs were treated with PBS, lipopeptide, poly(I:C) with or without lipopeptide for 12 hours, and fixed with formaldehyde for 15 min followed by adding ice-cold 0.25% TritonX-100 and hydrogen peroxide. Cells were stained with anti-p65 antibody for overnight after blocked with BSA for 0.5 h. Then the cells were incubated with the second antibody (FITC-goat anti Rabbit IgG) and visualized under the microscope.
NHEKs were treated with PBS, poly(I:C), lipopeptide, poly(I:C) with lipopeptide for 12 hours. Proteins from nucleus were isolated and separated by PAGE. The p65 in the nucleus was detected by Western blot. […] Thus the lipopeptide has no effect on poly(I:C)-induced p65 translocation into the nucleus.

PPAR-γ and p65 = assay: interaction between PPAR-γ and p65 in NHEKs, co-immunoprecipitation; details: poly(I:C) 4 hours or 12 hours, immunoprecipitation with p65 antibody
Experimental: Example 4 illustrates that poly(I:C) can induce p65 phosphorylation and translocation, and poly(I:C) induces the inflammatory response through PPAR-γ. The aim of Example 5 is to illustrate the interaction between the translocated p65 and PPAR-γ in the nucleus. NHEKs were treated with poly(I:C) for 4 hours or 12 hours. Whole-cell extracts were prepared by using lysis buffer containing NP40 and incubated with the p65 antibody at 4° C. for overnight. Protein AG beads were added and incubated at 4° C. for 1-2 hours. Beads were then washed twice with washing buffer. The immunoprecipitates were eluted with 20 ul 2× sodium dodecyl sulfate (SDS) loading buffer and separated by PAGE. The proteins were transferred to nitrocellulose membrane and probed with PPAR-γ antibody.

p65 [2] = assay: p65 phosphorylation in NHEKs, Western blot; details: poly(I:C) alone, 4 hours and 12 hours
Experimental: NHEKs were treated with PBS, poly(I:C), lipopeptide, poly(I:C) with lipopeptide for 4 hours or 12 hours. And then RIPA lysate was added to lyse the cell. The protein concentration was detected by using BCA protein assay kit, and 40 ug of proteins were separated by SDS-PAGE. The effects of the lipopeptide on p65 phosphorylation were detected by Western blot.

keratinocytes (NHEK) = assay: OVA-stimulated keratinocytes (NHEK), real-time RT-PCR; details: NHEKs treated with PPARγ inhibitor
Experimental: To mimics the condition of atopic dermatitis keratinocytes was stimulated by ovalbumin (OVA). To test the inhibitory effect of the lipopeptide on inflammatory response in atopic dermatitis, PBS, OVA, lipopeptide, lipopeptide plus OVA were used to stimulate keratinocytes (NHEK) and RNA was extracted after 24-hour stimulation. The expression of TNF-α and IL-6 was analyzed by real-time RT-PCR.

[3] = NHEKs treated with poly(I:C) alone, 24 h

Compound: [Cl-].[Li+] [LiCl]
- poly(I:C)-induced inflammatory response (NHEKs; NHEKs, 24 hours): inhibits
- β-catenin translocation (β-catenin): induces

Compound: poly(I:C)
- p65 translocation into the nucleus (p65 [1]; 4 hours): obviously induces
- level of p65 in the nucleus (p65 [1]; 12 hours, Western blot): significantly increases
- p65 translocation into the nucleus (p65 [1]; 12 hours): obviously induces
- interaction between PPAR-γ and P65 (PPAR-γ and p65): significantly induces
- p65 phosphorylation (p65 [2]): significantly induces
- IL-6 expression (NHEKs; [3]): dramatically induces; also recorded: dramatically increases
- TNF-α expression (NHEKs; [3]): dramatically induces; also recorded: dramatically increases

Compound: O=C(Nc1ccccc1)c1cc([N+](=O)[O-])ccc1Cl [GW9662]
- expression of IL-6 induced by poly(I:C) (NHEKs; NHEKs, 24 h): significantly inhibited
- expression of TNF-α induced by poly(I:C) (NHEKs; NHEKs, 24 h): significantly inhibited
- OVA-induced expression of inflammatory factor (keratinocytes (NHEK)): significantly decreased

Compound: N.S=C(S)N1CCCC1 [PDTC]
- expression of IL-6 induced by poly(I:C) (NHEKs; NHEKs, 24 h): inhibited
- expression of TNF-α induced by poly(I:C) (NHEKs; NHEKs, 24 h): inhibited
